Values of other authors as cited in PMC6428196 (Psychopharmacology, 2018).

What was measured:
[1] = human, in vivo, sc
[2] = in vivo
[3] = system: baboons; conditions: ref Holtyn et al. 2017

Bioavailability [1] [%] | Brain penetration after systemic administration [2] | SMILES | Drinking [3]
55 | penetrate the brain | CCCCCCCCCCCCCCCC(=O)N[C@@H](CCC(=O)NCCCC[C@H](NC(=O)[C@H](C)NC(=O)[C@H](C)NC(=O)[C@H](CCC(N)=O)NC(=O)CNC(=O)[C@H](CCC(=O)O)NC(=O)[C@H](CC(C)C)NC(=O)[C@H](Cc1ccc(O)cc1)NC(=O)[C@H](CO)NC(=O)[C@H](CO)NC(=O)[C@@H](NC(=O)[C@H](CC(=O)O)NC(=O)[C@H](CO)NC(=O)[C@@H](NC(=O)[C@H](Cc1ccccc1)NC(=O)[C@@H](NC(=O)CNC(=O)[C@H](CCC(=O)O)NC(=O)[C@H](C)NC(=O)[C@@H](N)Cc1cnc[nH]1)[C@@H](C)O)[C@@H](C)O)C(C)C)C(=O)N[C@@H](CCC(=O)O)C(=O)N[C@@H](Cc1ccccc1)C(=O)N[C@H](C(=O)N[C@@H](C)C(=O)N[C@@H](Cc1c[nH]c2ccccc12)C(=O)N[C@@H](CC(C)C)C(=O)N[C@H](C(=O)N[C@@H](CCCNC(=N)N)C(=O)NCC(=O)N[C@@H](CCCNC(=N)N)C(=O)NCC(=O)O)C(C)C)[C@@H](C)CC)C(=O)O [liraglutide] | –
– | – | O=C1CC[C@@]2(O)[C@H]3Cc4ccc(O)c5c4[C@@]2(CCN3CC2CC2)[C@H]1O5 [naltrexone] | reduced drinking to a degree comparable to our liraglutide effect
